Experiment [1] addresses T1, human SGLT1 (Homo sapiens, UniProt P13866).
T1 construct: the cDNA for hSGLTI (Genbank Ace. No. NM000343); expressed in transfected cells; host or cells: CHO-K1 or HEK293 cells expressing the hSGLT1 cDNA
T1 sequence (P13866 1-664): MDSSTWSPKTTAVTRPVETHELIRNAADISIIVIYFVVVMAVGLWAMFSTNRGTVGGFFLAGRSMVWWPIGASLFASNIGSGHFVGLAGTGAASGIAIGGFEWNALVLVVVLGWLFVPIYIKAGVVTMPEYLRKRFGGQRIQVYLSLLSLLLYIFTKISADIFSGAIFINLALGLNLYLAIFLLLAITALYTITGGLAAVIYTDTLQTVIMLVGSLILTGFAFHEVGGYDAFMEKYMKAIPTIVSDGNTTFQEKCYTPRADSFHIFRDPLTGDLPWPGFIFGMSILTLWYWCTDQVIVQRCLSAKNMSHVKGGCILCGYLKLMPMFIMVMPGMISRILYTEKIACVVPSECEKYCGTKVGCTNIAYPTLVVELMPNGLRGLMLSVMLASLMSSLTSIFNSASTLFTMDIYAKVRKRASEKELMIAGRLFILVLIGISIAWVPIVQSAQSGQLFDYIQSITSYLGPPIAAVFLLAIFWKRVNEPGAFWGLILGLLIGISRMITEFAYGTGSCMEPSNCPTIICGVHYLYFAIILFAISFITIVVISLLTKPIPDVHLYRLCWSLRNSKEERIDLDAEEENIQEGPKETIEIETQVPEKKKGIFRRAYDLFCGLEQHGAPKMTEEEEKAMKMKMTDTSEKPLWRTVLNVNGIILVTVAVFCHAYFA
Nature of the experiment: SGLT1 assay: analogous 14C-AMG uptake test with hSGLT1 cDNA expressed in CHO-K1 or HEK293 cells. Particulars: n = 1-4. The class given is cell-based. How it is done: (§1) The SGLT-2 assay is carried out as follows: CHO-hSGLT2 cells are cultivated in Ham's F12 Medium (BioWhittaker) with 10% foetal calf serum and 250 μg/mL zeocin (Invitrogen), and HEK293-hSGLT2 cells are cultivated in DMEM medium with 10% foetal calf serum and 250 μg/mL zeocin (Invitrogen). The cells are detached from the culture flasks by washing twice with PBS and subsequently treating with trypsin/EDTA. After the addition of cell culture medium the cells are centrifuged, resuspended in culture medium and counted in a Casy cell counter. Then 40,000 cells per well are seeded into a white, 96-well plate coated with poly-D-lysine and incubated overnight at 37° C., 5% CO2. The cells are washed twice with 250 μl of assay buffer (Hanks Balanced Salt Solution, 137 mM NaCl, 5.4 mM KCl, 2.8 mM CaCl2, 1.2 mM MgSO4 and 10 mM HEPES (pH 7.4), 50 μg/mL of gentamycin). 250 μl of assay buffer and 5 μl of test compound are then added to each well and the plate is incubated for a further 15 minutes in the incubator. 5 μl of 10% DMSO are used as the negative control. The reaction is started by adding 5 μl of 14 C— AMG (0.05 μCi) to each well. After 2 hours' incubation at 37° C., 5% CO2, the cells are washed again with 250 μl of PBS […] and then lysed by the addition of 25 μl of 0.1 N NaOH (5 min. at 37° C.). 200 μl of MicroScint20 (Packard) are added to each well and incubation is continued for a further 20 min at 37° C. After this incubation the radioactivity of the ^14C-AMG absorbed is measured in a Topcount (Packard) using a ^14C scintillation program.
To determine the selectivity with respect to human SGLT1 an analogous test is set up in which the cDNA for hSGLTI (Genbank Ace. No. NM000343) instead of hSGLT2 cDNA is expressed in CHO-K1 or HEK293 cells.

The target in experiment [2] is T2, human sodium glucose co-transporter 2 (Homo sapiens, UniProt P31639).
T2 construct: expressed in transfected cells; host or cells: CHO-K1 (ATCC CCL-61) or HEK293 (ATCC CRL-1573), stably transfected with pZeoSV carrying the hSGLT2 cDNA
T2 sequence (P31639 1-672): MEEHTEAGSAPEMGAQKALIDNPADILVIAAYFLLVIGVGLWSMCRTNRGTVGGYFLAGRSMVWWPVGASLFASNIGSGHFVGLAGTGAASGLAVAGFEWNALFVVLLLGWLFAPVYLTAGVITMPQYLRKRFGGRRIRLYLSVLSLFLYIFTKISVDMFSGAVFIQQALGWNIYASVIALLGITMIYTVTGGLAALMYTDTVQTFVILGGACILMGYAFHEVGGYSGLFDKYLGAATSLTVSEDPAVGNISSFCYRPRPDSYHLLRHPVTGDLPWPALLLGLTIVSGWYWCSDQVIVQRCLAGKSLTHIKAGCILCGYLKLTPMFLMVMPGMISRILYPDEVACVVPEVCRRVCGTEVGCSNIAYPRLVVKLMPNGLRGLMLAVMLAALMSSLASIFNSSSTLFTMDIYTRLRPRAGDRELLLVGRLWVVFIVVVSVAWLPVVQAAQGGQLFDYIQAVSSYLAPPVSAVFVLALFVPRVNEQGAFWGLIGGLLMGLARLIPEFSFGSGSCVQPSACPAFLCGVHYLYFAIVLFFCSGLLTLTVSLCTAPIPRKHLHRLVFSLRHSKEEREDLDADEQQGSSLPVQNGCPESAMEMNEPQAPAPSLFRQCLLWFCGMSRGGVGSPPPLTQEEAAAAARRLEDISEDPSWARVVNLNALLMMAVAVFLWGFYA
The experiment is described as follows: SGLT-2 assay: sodium-dependent 14C-AMG uptake in CHO-hSGLT2 or HEK-hSGLT2 cells. In kind it is cell-based. Particulars: n = 1-4, read-out: SGLT2 IC50 nM (n = 1-4). The procedure:
These cell lines transport ^14C-labelled alpha-methyl-glucopyranoside (^14C-AMG, Amersham) into the interior of the cell in sodium-dependent manner.
as §1

The structures appear in SMILES notation.

For orientation: IC50 means the concentration that gives 50% inhibition. As for `CS(=O)(=O)[C@H]1O[C@@H](c2ccc(C3CC3)c(Cc3ccc4c(c3)OCCO4)c2)[C@H](O)[C@@H](O)[C@@H]1O` [Example 2, (2S,3R,4R,5S)-2-[4-Cyclopropyl-3-(2,3-dihydro-benzo[1,4]dioxin-6-ylmethyl)-phenyl]-6-methanesulfonyl-tetrahydro-pyran-3,4,5-triol], the half-inhibitory concentration (IC50) came out at 97 nM in experiment [1] and 9.2 nM in experiment [2]. In the case of `CCc1ccc([C@@H]2O[C@H](SC)[C@@H](O)[C@H](O)[C@H]2O)cc1Cc1ccc2c(c1)OCCO2` [Example 1-1, (2S,3R,4R,5S,6R)-2-[3-(2,3-Dihydro-benzo[1,4]dioxin-6-ylmethyl)-4-ethyl-phenyl]-6-methylsulfanyl-tetrahydropyran-3,4,5-triol], in experiment [2], the IC50 was determined as 0.36 nM. Take `CCc1ccc([C@@H]2O[C@H](S(C)(=O)=O)[C@@H](O)[C@H](O)[C@H]2O)cc1Cc1ccc2c(c1)OCCO2` [Example 2-1, (2S,3R,4R,5S,6R)-2-[3-(2,3-Dihydro-benzo[1,4]dioxin-6-ylmethyl)-4-ethyl-phenyl]-6-methanesulfonyl-tetrahydropyran-3,4,5-triol]: the IC50 in experiment [1] amounted to 195 nM; in experiment [2] it was 1.45 nM. Consider `CSC1O[C@@H](c2ccc(C3CC3)c(Cc3ccc4c(c3)OCCO4)c2)[C@H](O)[C@@H](O)[C@@H]1O` (stereo partly drawn) [Example 1, (2S,3R,4R,5S)-2-[4-cyclopropyl-3-(2,3-dihydro-benzo[1,4]dioxin-6-ylmethyl)-phenyl]-6-methylsulfanyl-tetrahydro-pyran-3,4,5-triol], for which the IC50 in experiment [1] was found to be 0.55 nM; in experiment [2], 0.29 nM.

These data come from patent US8722633B2, “Glycoside derivatives and uses thereof” (Novartis AG, priority 2011, dated 2014).
